{"source": "patent US6391344B2", "about": "“Method of promoting synthesis of nerve growth factor” (Nagase & Company, Ltd., priority 1999, dated 2002)", "test_system": "Human glioblastoma cells (T98G, Cell line)", "experiment": "Promotion of NGF synthesis: NGF content in culture supernatant by enzyme immunoassay", "assay_type": "cell-based", "details": "for NGF Content in sample solution / content of NGF in the sample solution as compared with the systems not containing any effective ingredient: T98G cells; for NGF Content in sample solution: 4 days cultivation, mean ± standard deviation; for Relative NGF content: ratio of example solution to comparative example solution; for content of NGF in the sample solution as compared with the systems not containing any effective ingredient: result in words, both tested concentrations", "description": "Human glioblastoma cells (T98G, Cell line) were seeded in a MEM medium containing fetal bovine serum (10%; Gibco), sodium pyruvate (×1; Gibco) and nonessential amino acids (×1; Gibco) in wells of a flat-bottom 96-well plate (Corning), in a cell density of 2×10^4/well, and cultivated in a CO2 incubator (37° C., 5% CO2) for 3 days. The medium was then replaced by an Opti-MEM medium (containing 5 mg/ml of bovine serum albumin). The cultivation was continued for further 6 days with replacing the medium at intervals of 3 days.\n[…] After the cultivation, the supernatant was taken as a sample solution.\nOn the other hand, 1 ug/ml of an anti-NGF antibody (Promega) solution (50 ul) was added to each well of a 96-well microplate (Nunc), and the plate was allowed to stand overnight at 4° C. After washing the plate with PBS(−) (Nissui Pharmaceuticals), 1% of a bovine serum albumin (Sigma) solution (100 ul) was added to each well of the plate and the plate was allowed to stand at room temperature for 4 hrs. Subsequently, the plate was washed with PBS (−) and the above sample solution (50 ul) was added to each well of the plate. After the reaction at room temperature for one hour, the plate was washed with PBS (−).\nSubsequently, 0.4 unit/ml of an beta-galactosidase-labeled anti-NGF antibody (Boehringer Mannheim) solution (50 ul) was added to each well of the plate, and allowed to react at room temperature for one hour. After washing the plate with PBS (−), 0.5 mg/ml of a 4-methylumbelliferyl-beta-D-galactoside solution (200 ul) was added to each well of the plate, and allowed to react overnight at room temperature. The fluorescence intensity of 4-methylumbelliferone produced was measured on a fluorescence plate reader, and the content of NGF contained in the sample solution was determined using a standard curve obtained from a standard solution (human beta-NGF; PEPRO TECH EC).", "key": {"[1]": {"details": "20 uM effective ingredient in medium"}, "[2]": {"details": "100 uM effective ingredient in medium"}}, "data": [{"smiles": "CC(C)c1cc2c(c(O)c1O)[C@@]1(C(=O)O)CCCC(C)(C)C1CC2", "note": "(stereo partly shown) [Carnosic acid of formula (I), carnosic acid]", "values": [{"measurement": "NGF Content in sample solution", "setting": "[1]", "value": "46.0 ± 7.4", "unit": "pg/mL"}, {"measurement": "Relative NGF content", "setting": "[1]", "value": 7.2}, {"measurement": "NGF Content in sample solution", "setting": "[2]", "value": "158.5 ± 16.6", "unit": "pg/mL"}, {"measurement": "Relative NGF content", "setting": "[2]", "value": 24.8}]}, {"smiles": "CC(C)c1cc2c(c(O)c1O)[C@@]13CCCC(C)(C)C1C[C@@H]2OC3=O", "note": "(stereo partly shown) [Carnosol of formula (II), carnosol]", "values": [{"measurement": "NGF Content in sample solution", "setting": "[1]", "value": "35.4 ± 6.9", "unit": "pg/mL"}, {"measurement": "Relative NGF content", "setting": "[1]", "value": 5.5}, {"measurement": "NGF Content in sample solution", "setting": "[2]", "value": "39.9 ± 2.3", "unit": "pg/mL"}, {"measurement": "Relative NGF content", "setting": "[2]", "value": 6.2}]}, {"smiles": "CC(C)c1cc2c(c(O)c1O)[C@@]1(C(=O)O)CCCC(C)(C)[C@@H]1CC2", "note": "[carnosic acid of the formula (I)]", "values": [{"measurement": "content of NGF in the sample solution as compared with the systems not containing any effective ingredient", "value": "increases"}]}, {"smiles": "CC(C)c1cc2c(c(O)c1O)[C@@]13CCCC(C)(C)[C@@H]1C[C@@H]2OC3=O", "note": "[carnosol of the formula (II)]", "values": [{"measurement": "content of NGF in the sample solution as compared with the systems not containing any effective ingredient", "value": "increases"}]}]}
